Measured values: ChEMBL document CHEMBL3991601, “The target landscape of clinical kinase drugs” (Science, 2017)
Calls of active or inactive are those of the source.

Legend:
Obg-like ATPase 1 = Obg-like ATPase 1 (Homo sapiens, UniProt Q9NTK5)
[1] = biological target: Tyrosine-protein kinase FRK (Homo sapiens, UniProt P42685)
[2] = biological target: Tyrosine-protein kinase Lyn (Homo sapiens, UniProt P07948)
Myosin-14 = Myosin-14 (Homo sapiens, UniProt Q7Z406)
[3] = biological target: T1, Glycogen phosphorylase, brain form (Homo sapiens, UniProt P11216)
T1 sequence (P11216 whole entry): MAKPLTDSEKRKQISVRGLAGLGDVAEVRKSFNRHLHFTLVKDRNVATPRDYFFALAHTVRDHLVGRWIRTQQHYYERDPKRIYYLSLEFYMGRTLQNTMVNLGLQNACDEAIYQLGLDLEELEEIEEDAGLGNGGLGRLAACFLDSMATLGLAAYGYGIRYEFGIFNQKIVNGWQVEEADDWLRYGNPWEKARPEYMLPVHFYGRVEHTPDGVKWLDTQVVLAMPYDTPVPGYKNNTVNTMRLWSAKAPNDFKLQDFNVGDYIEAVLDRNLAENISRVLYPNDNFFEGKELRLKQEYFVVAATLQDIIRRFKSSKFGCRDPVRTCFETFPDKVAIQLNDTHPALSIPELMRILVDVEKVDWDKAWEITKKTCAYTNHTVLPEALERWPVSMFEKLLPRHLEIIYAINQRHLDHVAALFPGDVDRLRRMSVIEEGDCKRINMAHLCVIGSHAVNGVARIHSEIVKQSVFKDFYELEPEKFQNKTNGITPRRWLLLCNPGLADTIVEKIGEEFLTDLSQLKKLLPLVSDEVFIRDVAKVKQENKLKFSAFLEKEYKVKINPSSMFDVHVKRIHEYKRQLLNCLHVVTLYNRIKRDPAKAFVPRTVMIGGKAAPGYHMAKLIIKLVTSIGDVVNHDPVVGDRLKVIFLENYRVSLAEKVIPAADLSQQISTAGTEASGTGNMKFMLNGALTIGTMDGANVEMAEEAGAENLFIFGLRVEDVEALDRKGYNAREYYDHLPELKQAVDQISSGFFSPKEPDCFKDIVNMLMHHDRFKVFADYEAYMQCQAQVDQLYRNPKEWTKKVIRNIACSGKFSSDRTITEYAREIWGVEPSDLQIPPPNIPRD

[4] = biological target: NADH dehydrogenase [ubiquinone] 1 alpha subcomplex subunit 13 (Homo sapiens, UniProt Q9P0J0)
Chain of NADH dehydrogenase [ubiquinone] 1 alpha subcomplex subunit 13 (Q9P0J0 whole entry, one chain of several): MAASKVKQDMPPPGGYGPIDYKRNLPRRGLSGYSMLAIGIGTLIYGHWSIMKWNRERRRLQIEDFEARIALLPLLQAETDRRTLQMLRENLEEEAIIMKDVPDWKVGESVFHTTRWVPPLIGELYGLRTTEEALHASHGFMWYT

[5] = biological target: Mitogen-activated protein kinase 1 (Homo sapiens, UniProt P28482)
Chain of Mitogen-activated protein kinase 1 (P28482 whole entry): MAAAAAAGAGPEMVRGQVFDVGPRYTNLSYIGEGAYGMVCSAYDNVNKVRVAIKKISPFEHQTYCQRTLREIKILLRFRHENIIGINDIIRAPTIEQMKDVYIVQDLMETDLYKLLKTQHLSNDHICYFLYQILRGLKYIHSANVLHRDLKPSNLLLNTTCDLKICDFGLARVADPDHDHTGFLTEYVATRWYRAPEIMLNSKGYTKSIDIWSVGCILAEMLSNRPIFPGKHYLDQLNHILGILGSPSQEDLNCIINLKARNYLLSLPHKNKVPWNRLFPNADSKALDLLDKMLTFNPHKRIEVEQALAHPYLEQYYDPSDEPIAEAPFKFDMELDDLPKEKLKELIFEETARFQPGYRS

[6] = biological target: T2, Breakpoint cluster region protein (Homo sapiens, UniProt P11274)
T2 sequence (P11274 whole entry): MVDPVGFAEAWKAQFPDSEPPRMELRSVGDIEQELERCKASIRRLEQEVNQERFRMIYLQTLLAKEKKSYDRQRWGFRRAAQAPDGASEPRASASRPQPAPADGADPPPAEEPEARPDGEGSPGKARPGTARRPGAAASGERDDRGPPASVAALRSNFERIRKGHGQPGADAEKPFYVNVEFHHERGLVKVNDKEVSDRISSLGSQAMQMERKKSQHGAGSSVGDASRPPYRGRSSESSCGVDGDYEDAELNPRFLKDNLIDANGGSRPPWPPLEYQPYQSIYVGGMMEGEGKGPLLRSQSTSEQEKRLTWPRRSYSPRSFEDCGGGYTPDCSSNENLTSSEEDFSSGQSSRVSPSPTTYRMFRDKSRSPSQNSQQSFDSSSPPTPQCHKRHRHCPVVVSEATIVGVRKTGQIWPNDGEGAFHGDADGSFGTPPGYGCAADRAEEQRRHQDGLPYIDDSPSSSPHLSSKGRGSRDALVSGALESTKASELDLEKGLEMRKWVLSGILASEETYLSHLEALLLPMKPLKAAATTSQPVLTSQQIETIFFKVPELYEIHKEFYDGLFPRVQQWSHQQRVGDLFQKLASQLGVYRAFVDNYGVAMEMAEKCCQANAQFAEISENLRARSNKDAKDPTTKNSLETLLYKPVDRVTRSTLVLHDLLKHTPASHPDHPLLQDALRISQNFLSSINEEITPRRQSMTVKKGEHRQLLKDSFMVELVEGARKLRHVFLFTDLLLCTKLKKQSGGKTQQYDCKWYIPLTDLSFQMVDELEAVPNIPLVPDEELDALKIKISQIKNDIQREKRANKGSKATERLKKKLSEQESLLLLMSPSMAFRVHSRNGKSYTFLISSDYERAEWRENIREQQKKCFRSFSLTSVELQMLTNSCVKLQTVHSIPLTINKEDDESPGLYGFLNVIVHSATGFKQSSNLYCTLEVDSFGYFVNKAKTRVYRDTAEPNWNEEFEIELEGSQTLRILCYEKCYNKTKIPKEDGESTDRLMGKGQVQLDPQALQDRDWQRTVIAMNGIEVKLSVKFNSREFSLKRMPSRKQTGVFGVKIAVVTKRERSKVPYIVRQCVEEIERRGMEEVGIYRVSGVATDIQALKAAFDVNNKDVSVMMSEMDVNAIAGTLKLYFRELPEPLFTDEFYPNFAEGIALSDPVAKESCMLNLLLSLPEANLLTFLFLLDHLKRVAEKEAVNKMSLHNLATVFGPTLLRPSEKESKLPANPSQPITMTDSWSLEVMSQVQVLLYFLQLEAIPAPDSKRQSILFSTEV

[7] = biological target: T3, Interleukin-1 receptor-associated kinase 4 (Homo sapiens, UniProt Q9NWZ3)
T3 sequence (Q9NWZ3 whole entry): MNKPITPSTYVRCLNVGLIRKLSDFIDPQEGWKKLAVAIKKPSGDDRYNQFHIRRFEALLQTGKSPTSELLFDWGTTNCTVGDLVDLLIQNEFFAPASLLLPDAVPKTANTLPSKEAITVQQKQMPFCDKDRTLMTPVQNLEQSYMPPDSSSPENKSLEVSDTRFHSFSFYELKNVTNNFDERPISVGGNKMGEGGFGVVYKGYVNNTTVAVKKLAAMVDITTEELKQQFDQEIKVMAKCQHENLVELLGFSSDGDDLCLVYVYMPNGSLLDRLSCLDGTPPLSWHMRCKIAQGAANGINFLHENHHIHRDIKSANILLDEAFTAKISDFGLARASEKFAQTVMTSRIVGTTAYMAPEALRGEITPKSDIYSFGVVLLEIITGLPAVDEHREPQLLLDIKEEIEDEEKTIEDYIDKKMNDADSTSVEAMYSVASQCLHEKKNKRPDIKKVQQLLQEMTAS
Also: in the data inactive means no Kd found up to 30 µM.

Chain of Tyrosine-protein kinase FRK (P42685 whole entry): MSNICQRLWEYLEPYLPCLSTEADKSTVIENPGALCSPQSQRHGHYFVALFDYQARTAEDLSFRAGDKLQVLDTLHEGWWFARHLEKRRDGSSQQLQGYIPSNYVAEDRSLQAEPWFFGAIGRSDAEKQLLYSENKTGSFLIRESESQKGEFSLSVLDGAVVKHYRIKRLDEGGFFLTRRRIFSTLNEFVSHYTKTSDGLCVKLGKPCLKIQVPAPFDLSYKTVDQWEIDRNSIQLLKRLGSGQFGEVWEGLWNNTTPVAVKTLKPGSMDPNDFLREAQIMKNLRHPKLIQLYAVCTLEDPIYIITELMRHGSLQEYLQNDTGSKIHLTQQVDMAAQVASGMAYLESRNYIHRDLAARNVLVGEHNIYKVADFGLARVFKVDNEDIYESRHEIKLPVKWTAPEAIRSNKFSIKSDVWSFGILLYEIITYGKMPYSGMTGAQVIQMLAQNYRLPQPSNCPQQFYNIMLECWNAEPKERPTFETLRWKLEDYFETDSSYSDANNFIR
Chain of Myosin-14 (Q7Z406 whole entry): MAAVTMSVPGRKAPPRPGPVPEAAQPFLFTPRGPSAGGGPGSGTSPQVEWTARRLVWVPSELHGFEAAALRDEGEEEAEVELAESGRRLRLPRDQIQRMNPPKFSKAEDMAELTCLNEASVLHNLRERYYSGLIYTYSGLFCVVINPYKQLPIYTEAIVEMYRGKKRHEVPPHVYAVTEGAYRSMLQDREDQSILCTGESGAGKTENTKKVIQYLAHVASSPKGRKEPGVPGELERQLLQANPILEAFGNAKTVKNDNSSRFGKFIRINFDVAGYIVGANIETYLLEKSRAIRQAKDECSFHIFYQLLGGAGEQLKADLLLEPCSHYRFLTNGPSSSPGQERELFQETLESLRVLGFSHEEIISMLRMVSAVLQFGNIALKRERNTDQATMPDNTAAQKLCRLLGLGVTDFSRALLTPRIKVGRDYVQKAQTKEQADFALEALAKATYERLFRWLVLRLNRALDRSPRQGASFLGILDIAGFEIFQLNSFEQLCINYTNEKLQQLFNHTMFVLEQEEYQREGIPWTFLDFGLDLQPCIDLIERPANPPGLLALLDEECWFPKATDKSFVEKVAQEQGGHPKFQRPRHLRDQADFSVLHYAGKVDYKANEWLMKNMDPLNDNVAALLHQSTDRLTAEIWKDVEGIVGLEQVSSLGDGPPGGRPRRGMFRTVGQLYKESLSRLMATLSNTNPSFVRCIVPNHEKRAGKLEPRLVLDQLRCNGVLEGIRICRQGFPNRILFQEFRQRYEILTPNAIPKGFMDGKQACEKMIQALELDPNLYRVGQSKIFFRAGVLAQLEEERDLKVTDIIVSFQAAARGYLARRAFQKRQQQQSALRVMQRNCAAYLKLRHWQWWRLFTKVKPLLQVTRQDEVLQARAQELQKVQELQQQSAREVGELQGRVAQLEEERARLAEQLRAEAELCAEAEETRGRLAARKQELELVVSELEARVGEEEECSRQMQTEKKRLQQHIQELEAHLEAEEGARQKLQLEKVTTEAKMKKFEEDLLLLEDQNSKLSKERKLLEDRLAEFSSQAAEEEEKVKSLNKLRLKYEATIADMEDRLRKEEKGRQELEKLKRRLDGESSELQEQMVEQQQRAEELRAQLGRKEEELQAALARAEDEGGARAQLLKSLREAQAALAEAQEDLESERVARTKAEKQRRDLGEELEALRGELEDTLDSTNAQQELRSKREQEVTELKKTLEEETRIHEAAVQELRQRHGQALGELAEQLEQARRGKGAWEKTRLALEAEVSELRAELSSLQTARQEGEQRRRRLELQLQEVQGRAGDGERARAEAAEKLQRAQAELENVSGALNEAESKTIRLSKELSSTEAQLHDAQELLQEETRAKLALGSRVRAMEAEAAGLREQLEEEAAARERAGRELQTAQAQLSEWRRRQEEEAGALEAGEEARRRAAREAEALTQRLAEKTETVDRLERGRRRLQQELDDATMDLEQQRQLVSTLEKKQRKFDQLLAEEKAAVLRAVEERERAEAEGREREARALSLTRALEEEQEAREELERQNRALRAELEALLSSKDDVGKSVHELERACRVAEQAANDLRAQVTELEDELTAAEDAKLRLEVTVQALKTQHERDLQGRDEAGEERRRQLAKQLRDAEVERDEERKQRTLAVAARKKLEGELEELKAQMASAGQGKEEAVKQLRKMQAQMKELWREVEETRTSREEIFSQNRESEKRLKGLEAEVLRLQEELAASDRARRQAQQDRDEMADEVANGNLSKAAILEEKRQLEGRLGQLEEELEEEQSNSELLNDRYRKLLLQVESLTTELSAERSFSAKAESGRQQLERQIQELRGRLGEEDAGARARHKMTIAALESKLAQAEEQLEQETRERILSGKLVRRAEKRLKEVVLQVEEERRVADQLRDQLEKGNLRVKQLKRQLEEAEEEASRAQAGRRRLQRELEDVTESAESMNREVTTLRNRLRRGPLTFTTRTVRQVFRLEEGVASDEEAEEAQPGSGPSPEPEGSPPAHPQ
Chain of Obg-like ATPase 1 (Q9NTK5 whole entry, looked up): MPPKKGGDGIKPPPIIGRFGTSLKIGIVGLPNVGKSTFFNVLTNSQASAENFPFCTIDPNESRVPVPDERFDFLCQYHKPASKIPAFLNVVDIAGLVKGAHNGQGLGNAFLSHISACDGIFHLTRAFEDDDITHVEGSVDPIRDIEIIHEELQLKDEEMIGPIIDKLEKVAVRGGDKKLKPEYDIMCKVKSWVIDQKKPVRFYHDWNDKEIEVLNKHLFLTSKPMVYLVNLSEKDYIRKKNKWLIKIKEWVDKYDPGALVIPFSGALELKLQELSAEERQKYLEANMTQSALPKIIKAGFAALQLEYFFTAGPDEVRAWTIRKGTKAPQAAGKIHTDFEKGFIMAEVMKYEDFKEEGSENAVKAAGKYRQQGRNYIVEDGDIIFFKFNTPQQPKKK
Chain of Tyrosine-protein kinase Lyn (P07948 whole entry): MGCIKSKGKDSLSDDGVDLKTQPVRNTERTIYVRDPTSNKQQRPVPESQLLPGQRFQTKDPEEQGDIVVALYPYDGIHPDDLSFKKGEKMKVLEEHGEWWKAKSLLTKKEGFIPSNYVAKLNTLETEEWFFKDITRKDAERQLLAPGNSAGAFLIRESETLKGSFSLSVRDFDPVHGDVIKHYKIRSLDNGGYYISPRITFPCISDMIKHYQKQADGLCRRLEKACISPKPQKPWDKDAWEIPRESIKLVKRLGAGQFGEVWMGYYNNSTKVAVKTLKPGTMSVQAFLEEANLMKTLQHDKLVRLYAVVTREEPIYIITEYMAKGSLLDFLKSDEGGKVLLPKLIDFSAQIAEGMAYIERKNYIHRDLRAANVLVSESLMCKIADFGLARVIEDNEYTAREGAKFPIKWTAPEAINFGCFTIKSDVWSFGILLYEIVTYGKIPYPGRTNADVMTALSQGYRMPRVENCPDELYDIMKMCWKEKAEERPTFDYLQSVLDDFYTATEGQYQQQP

SMILES	Kd (Obg-like ATPase 1)	Kd [1]	Kd [2]	Kd (Myosin-14)	Kd [3]	Kd [4]	Kd [5]	Kd [6]	Kd [7]
Cn1cc(-c2[nH]c3cc(NC(=O)[C@H](N)C4CCCCC4)cc4c3c2C=NNC4=O)cn1	> 30 µM (inactive)	> 30 µM (inactive)	0.331 µM (active)	> 30 µM (inactive)	> 30 µM (inactive)	> 30 µM (inactive)	> 30 µM (inactive)	1.11 µM (active)	2.61 µM (active)
NC(=O)c1ccc(N(C(N)=O)c2c(F)cccc2F)nc1-c1ccc(F)cc1F [VX-702]	> 30 µM (inactive)	> 30 µM (inactive)	> 30 µM (inactive)	> 30 µM (inactive)	> 30 µM (inactive)	> 30 µM (inactive)	> 30 µM (inactive)	> 30 µM (inactive)	> 30 µM (inactive)
COc1cc2ncnc(Nc3ccc(F)c(Cl)c3)c2cc1NC(=O)/C=C/CN1CCCCC1 [DACOMITINIB ANHYDROUS]	> 30 µM (inactive)	> 30 µM (inactive)	> 30 µM (inactive)	> 30 µM (inactive)	> 30 µM (inactive)	> 30 µM (inactive)	> 30 µM (inactive)	> 30 µM (inactive)	> 30 µM (inactive)
S=C(NCc1ccc2c(c1)OCO2)N1CCN(c2ncnc3c2oc2ccccc23)CC1 [AMUVATINIB]	> 30 µM (inactive)	> 30 µM (inactive)	> 30 µM (inactive)	> 30 µM (inactive)	> 30 µM (inactive)	> 30 µM (inactive)	> 30 µM (inactive)	> 30 µM (inactive)	> 30 µM (inactive)
COc1cc(F)c(F)c(Nc2ccc(I)cc2F)c1NS(=O)(=O)C1(C[C@H](O)CO)CC1 [REFAMETINIB]	> 30 µM (inactive)	> 30 µM (inactive)	> 30 µM (inactive)	> 30 µM (inactive)	> 30 µM (inactive)	> 30 µM (inactive)	> 30 µM (inactive)	> 30 µM (inactive)	> 30 µM (inactive)
C#Cc1cccc(Nc2ncnc3cc4c(cc23)OCCOCCOCCO4)c1 [ICOTINIB]	> 30 µM (inactive)	> 30 µM (inactive)	> 30 µM (inactive)	> 30 µM (inactive)	> 30 µM (inactive)	> 30 µM (inactive)	> 30 µM (inactive)	> 30 µM (inactive)	> 30 µM (inactive)
COc1cc2ncnc(Nc3ccc(O)cc3)c2cc1OC [WHI-P131]	> 30 µM (inactive)	> 30 µM (inactive)	> 30 µM (inactive)	> 30 µM (inactive)	> 30 µM (inactive)	> 30 µM (inactive)	> 30 µM (inactive)	> 30 µM (inactive)	34.1 µM (active)
Cn1c(=O)n(-c2ccc(C(C)(C)C#N)cc2)c2c3cc(-c4cnc5ccccc5c4)ccc3ncc21 [DACTOLISIB]	> 30 µM (inactive)	> 30 µM (inactive)	> 30 µM (inactive)	> 30 µM (inactive)	> 30 µM (inactive)	> 30 µM (inactive)	> 30 µM (inactive)	> 30 µM (inactive)	> 30 µM (inactive)
C=CC(=O)Nc1cc(Nc2nccc(-c3cn(C)c4ccccc34)n2)c(OC)cc1N(C)CCN(C)C [OSIMERTINIB]	> 30 µM (inactive)	> 30 µM (inactive)	> 30 µM (inactive)	> 30 µM (inactive)	> 30 µM (inactive)	> 30 µM (inactive)	> 30 µM (inactive)	> 30 µM (inactive)	> 30 µM (inactive)
COc1ccc2c(OCc3nnc4ccc(-c5ccccc5)nn34)ccnc2c1 [AMG-208]	> 30 µM (inactive)	> 30 µM (inactive)	> 30 µM (inactive)	> 30 µM (inactive)	> 30 µM (inactive)	> 30 µM (inactive)	> 30 µM (inactive)	> 30 µM (inactive)	> 30 µM (inactive)
CCN(CCCOc1ccc2c(Nc3cc(CC(=O)Nc4cccc(F)c4)n[nH]3)ncnc2c1)CCOP(=O)(O)O [BARASERTIB]	> 30 µM (inactive)	> 30 µM (inactive)	3.63 µM (active)	> 30 µM (inactive)	> 30 µM (inactive)	> 30 µM (inactive)	> 30 µM (inactive)	> 30 µM (inactive)	> 30 µM (inactive)
COc1cccc2cc(-c3nc([C@H]4CC[C@H](C(=O)O)CC4)n4ncnc(N)c34)[nH]c12 [OSI-027]	> 30 µM (inactive)	> 30 µM (inactive)	> 30 µM (inactive)	> 30 µM (inactive)	> 30 µM (inactive)	> 30 µM (inactive)	> 30 µM (inactive)	> 30 µM (inactive)	> 30 µM (inactive)
O=C(NC[C@H](O)CO)c1ccncc1Nc1ccc(I)cc1F [PIMASERTIB]	> 30 µM (inactive)	> 30 µM (inactive)	> 30 µM (inactive)	> 30 µM (inactive)	> 30 µM (inactive)	> 30 µM (inactive)	> 30 µM (inactive)	> 30 µM (inactive)	> 30 µM (inactive)
c1cc(OCCN2CCCCC2)cc(-c2n[nH]c3ccc(-c4nc[nH]n4)cc23)c1 [CC-401]	> 30 µM (inactive)	> 30 µM (inactive)	> 30 µM (inactive)	> 30 µM (inactive)	> 30 µM (inactive)	> 30 µM (inactive)	> 30 µM (inactive)	> 30 µM (inactive)	> 30 µM (inactive)
COc1ccc(-c2ccc3ncc4c(c3c2)n(-c2ccc(N3CCNCC3)c(C(F)(F)F)c2)c(=O)n4C)cn1 [BGT-226 FREE BASE]	> 30 µM (inactive)	> 30 µM (inactive)	> 30 µM (inactive)	> 30 µM (inactive)	> 30 µM (inactive)	> 30 µM (inactive)	> 30 µM (inactive)	> 30 µM (inactive)	> 30 µM (inactive)
